Experimental findings from US20260109721A1, “IONIZABLE CATIONIC LIPIDS INCORPORATING SILICON: SYNTHESIS AND LNP FORMULATION” (priority 2023, published 2026) are described below.

Series [1] is described as follows: LNP size and size distribution by Dynamic Light Scattering (Method B). Type of series: physicochemical. As to conditions: DLS; for Size (nm): Z-average. How it is done:
• 0.33 ug/uL mRNA solution in DEPC-treated water (RiboPro, Off-The-Shelf mRNA; eGFP with Cap 1) • 0.04 ug/uL mRNA solution in DEPC-treated water (RiboPro, Off-The-Shelf mRNA; eGFP with Cap 1)
In 1.5 mL eppendorf: • a) Place 2.9 uL of 0.33 ug/uL mRNA solution into Eppendorf tube • b) Add 1.94 μL of supplied ethanolic solution of tested lipid and immediately mix by working pipette up-and-down several times (work the solution up and down several times before transferring to saturate pipette tip with ethanol vapors) • c) Incubate for 15 minutes. • d) Add 536 μL of MEM. Mix the solution by vortexing. • e) Incubate for 30 minutes.
• a) Place 45 μL Lipofectamine-50 solution into 1.5 mL sterile Eppendorf tube. • b) Add 315 μL of MEM. Vortex. • c) Incubate 15 min. Size and Size Distribution Measurements with Dynamic Light Scattering • 1. Transfer 100 μL of freshly prepared LNP formulation in DLS micro cuvette. • 2. Place the formulation into Zetasizer pre-heated to 37 C. • 3. Equilibrate the sample for 5 minutes. • 4. Perform the size measurement in triplicate (settings: position and gain auto). • 5. For QC examine correlation curve to have no disturbances. Report Z-average and PDI based on cumulants fit. Transfection Efficiency with GFP mRNA (Method B)

A short description of series [2]: Apparent pKa in LNPs by TNS titration. Type of series: physicochemical. Particulars: lipid nanoparticles (LNPs). As for the experimental part: In the case of some lipids, the apparent pKa in LNPs was determined by using TNS titration based on the method described: Angew Chem Int Ed Engl. 2012, 51 (34), 8529-8533, doi: 10.1002/anie.201203263).

Structures are written as SMILES.

For the compound `CCCCC/C=C\C/C=C\CCCCCCCCOC(CCCCCCC/C=C\C/C=C\CCCCC)O[Si](C)(C)OCCCCCCN(CCO)CCO` (stereo not drawn) [Example 48, (23Z,26Z)-13-((8Z,11Z)-heptadeca-8,11-dien-1-yl)-3-(2-hydroxyethyl)-11,11-dimethyl-10,12,14-trioxa-3-aza-11-siladotriaconta-23,26-dien-1-ol], in series [1], the PDI is 0.128 and the “Size (nm)” value was found to be 180 nm. For the same compound, in series [2], the pKa came to 7.73.

Take `CCCCC/C=C\C/C=C\CCCCCCCCOC(CCCCCCC/C=C\C/C=C\CCCCC)O[Si](C)(C)OCCCCCCN(C)CCO` (stereo not drawn) [Example 56, (23Z,26Z)-13-((8Z,11Z)-heptadeca-8,11-dien-1-yl)-3,11,11-trimethyl-10,12,14-trioxa-3-aza-11-siladotriaconta-23,26-dien-1-ol]: in series [1], the PDI came to 0.092 and the “Size (nm)” value is 185 nm. Also, the pKa in series [2] is 7.21.
